Read-outs that look alike come from different tables or passages of the source. Ends that are not written are not given here.
Tests used:
[1] = biological target: T1, human recombinant NOP receptor (Homo sapiens, UniProt P41146); test: cell-based; format: cell-based
T1 construct: expressed in transfected cells

mouse vas deferens = test: electrically stimulated mouse vas deferens bioassay; conditions: Table 2; for mVD Emax ± SEM: percent of the control twitch, mean ± SEM of at least 4 separate experiments, footnote a: concentration response curve incomplete due to low potency
Procedure: The experiments were performed on the mouse vas deferens (mVD). The tissues were taken from male CD-1 mice 16–18 g (Harlan, Ud, Italy). Mice were housed in 425 × 266 × 155 mm cages (Techniplast, Mi, Italy), 8 per cage, all under standard conditions (22 °C, 55% humidity, 12 h light/dark cycle, light on at 7:00 h), with food for mice (4RF, Mucedola, Mi, Italy) and water ad libitum. A mouse red house (Tecniplast, Va, Italy) and nesting materials were present in each cage for mice. The day of the experiment the animals were sacrificed with CO2 overdose. The experimental protocol was approved by the Ethical Committee for the Use of Laboratory Animals of the University of Ferrara and by the Italian Ministry of Health (authorization number 9927, 19/04/2013). The animals were treated in accordance with the European Communities Council directives (2010/63/EU) and national regulations (D.L. 26/2014). Bioassay experiments were performed as previously described. The tissues were suspended in 5 ml organ bath containing Krebs solution (composition in mM: NaCl 118.5, KCl 4.7, KH2PO4 1.2, NaHCO3 25, CaCl2 2.5, glucose 10). The Krebs solution was oxygenated with 95% O2 and 5% CO2. The temperature was set at 33 °C. At resting tension 0.3 g was applied to the mVD. […] The electrically evoked contractions were measured isotonically by means of Basile strain gauge transducers (Basile 7006; srl Ugo Basile, Varese, Italy) and recorder with a computer – based acquisition system (Power Lab 8, ADInstruments, Colorado Springs, USA). […]
The pharmacological terminology adopted in this paper is consistent with IUPHAR recommendations. All data are expressed as the mean ± standard error of the mean (SEM) of n experiments. […] In calcium mobilization experiments, maximum change in fluorescence, expressed as percent over the baseline fluorescence, was used to determine agonist response. Electrically stimulated tissues data are expressed as % of the control twitch induced by electrical field stimulation. […]

T1 sequence (P41146 whole entry): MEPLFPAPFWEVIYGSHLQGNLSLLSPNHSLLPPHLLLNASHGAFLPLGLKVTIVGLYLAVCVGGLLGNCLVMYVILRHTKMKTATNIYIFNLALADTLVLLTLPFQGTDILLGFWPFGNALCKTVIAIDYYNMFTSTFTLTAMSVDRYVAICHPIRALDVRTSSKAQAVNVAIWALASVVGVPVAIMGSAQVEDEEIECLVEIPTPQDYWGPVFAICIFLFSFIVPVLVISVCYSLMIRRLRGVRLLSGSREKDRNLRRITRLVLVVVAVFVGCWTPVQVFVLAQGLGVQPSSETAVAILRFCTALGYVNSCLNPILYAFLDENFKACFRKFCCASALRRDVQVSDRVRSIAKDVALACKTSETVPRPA

## FGGFTGARKSAR-NH2 [compound 10, N/OFQ(1-12)-NH2] [listing 1 of 2 here]
[1]; Ca2+ mobilization pEC50 (CL95%)
  EC50: 0.2 nM

## N/OFQ(1-11)-NH2 (FGGFTGARKSA-NH2; UniProt Q13519 130-140, looked up, fragment) [compound 12]
Mouse vas deferens; SEM
  mVD Emax ± SEM: 65 ± 5%^a
[1]; SEM
  Ca2+ mobilization Emax ± SEM: 182 ± 34%

## N/OFQ(2-12)-NH2 [compound 14]
Mouse vas deferens; electrically stimulated mouse vas deferens, Krebs solution, 33 °C, cumulative concentration response curves, mean of at least 4 separate experiments, CL95% in brackets, * P < 0.05 versus N/OFQ(1-13)-NH2
  mVD pEC50 (CL95%): inactive
Mouse vas deferens
  mVD Emax ± SEM: inactive
[1]
  Ca2+ mobilization Emax ± SEM: Inactive
  Ca2+ mobilization pEC50 (CL95%): Inactive

## FGGFTGARKSAR-NH2 [compound 10, N/OFQ(1-12)-NH2] [listing 2 of 2 here]
[1]; CHO, read-out: Ca2+ mobilization Emax ± SEM, SEM
  Emax: 204 ± 16%

## compound 15: heterodimeric derivative N/OFQ(1-12)-N/OFQ(2-12), 2,2′-disulfanediyldiethanamine spacer (chain 1 FGGFTGARKSAR; chain 2 GGFTGARKSAR)
[1]
  Ca2+ mobilization pEC50 (CL95%): 9.49 (9.07–9.91)

Source: article PMC5382891 (Scientific Reports, 2017)
